Values joined by “and” are separate entries in the source; they are usually repeats but may differ in a detail not shown here. Equal entries are not always repeated. Toxic doses and inconclusive results are not listed.
Tested on: L1210 leukemia ip in BDF1 mice, survival T/C
Assay: NCI In Vivo Anticancer Drug Screen. Data for tumor model L1210 Leukemia (intraperitoneal) in B6D2F1 (BDF1) mice
Conditions: endpoint: mean survival time, higher = longer survival
Procedure, shortened: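 Each compound was tested against a transplantable tumor grown in mice. The endpoint was survival, with treated animals benchmarked against vehicle controls as a simple ratio.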

[1] = dose: 50.0 mg/kg/injection, schedule: Q01DX009 (ip), vehicle: Klucel (hydroxypropylcellulose) (HPC)
[2] = dose: 100.0 mg/kg/injection, schedule: Q01DX009 (ip), vehicle: Klucel (hydroxypropylcellulose) (HPC)
[3] = dose: 200.0 mg/kg/injection, schedule: Q01DX009 (ip), vehicle: Klucel (hydroxypropylcellulose) (HPC)
[4] = dose: 100.0 mg/kg/injection, schedule: Q01DX001 (ip), vehicle: saline
[5] = dose: 200.0 mg/kg/injection, schedule: Q01DX001 (ip), vehicle: saline
[6] = dose: 400.0 mg/kg/injection, schedule: Q01DX001 (ip), vehicle: saline
[7] = dose: 50.0 mg/kg/injection, schedule: Q04DX002 (ip), vehicle: Klucel (hydroxypropylcellulose) (HPC)
[8] = dose: 100.0 mg/kg/injection, schedule: Q04DX002 (ip), vehicle: Klucel (hydroxypropylcellulose) (HPC)
[9] = dose: 200.0 mg/kg/injection, schedule: Q04DX002 (ip), vehicle: Klucel (hydroxypropylcellulose) (HPC)
[10] = dose: 400.0 mg/kg/injection, schedule: Q04DX002 (ip), vehicle: Klucel (hydroxypropylcellulose) (HPC)
[11] = dose: 100.0 mg/kg/injection, schedule: Q04DX003 (ip), vehicle: Klucel (hydroxypropylcellulose) (HPC)
[12] = dose: 200.0 mg/kg/injection, schedule: Q04DX003 (ip), vehicle: Klucel (hydroxypropylcellulose) (HPC)
[13] = dose: 400.0 mg/kg/injection, schedule: Q04DX003 (ip), vehicle: Klucel (hydroxypropylcellulose) (HPC)

In the case of `CCNS(=O)(=O)c1ccc(C(N)=S)cc1`, the T/C (dose: 100.0 mg/kg/injection, schedule: Q01DX001 (ip), vehicle: saline with Tween-80) is reported as 100 % of control, the T/C (dose: 200.0 mg/kg/injection, schedule: Q01DX001 (ip), vehicle: saline with Tween-80) is reported as 97 % of control and the T/C (dose: 400.0 mg/kg/injection, schedule: Q01DX001 (ip), vehicle: saline with Tween-80) is reported as 98 % of control.

In the case of `Cc1ccc(OC/C=C/CS(=O)(=O)c2ccc(Cl)cc2)cc1`, the T/C [1] is reported as 98 % of control, the T/C (dose: 75.0 mg/kg/injection, schedule: Q01DX001 (ip), vehicle: Klucel (hydroxypropylcellulose) (HPC)) is reported as 96 % of control and the T/C [2] is reported as 95 % of control. The T/C (dose: 150.0 mg/kg/injection, schedule: Q01DX001 (ip), vehicle: Klucel (hydroxypropylcellulose) (HPC)) was 96 % of control, the T/C [3] was 98 % of control and the T/C (dose: 300.0 mg/kg/injection, schedule: Q01DX001 (ip), vehicle: Klucel (hydroxypropylcellulose) (HPC)) was 94 % of control.

For `Cc1cc2nc3c(=O)[nH]c(=O)nc-3n(CCN(CCCl)CCCl)c2cc1C`, the T/C (dose: 42.0 mg/kg/injection, schedule: Q01DX015 (ip), vehicle: carboxymethylcellulose (CMC)) was 115 % of control, the T/C (dose: 72.0 mg/kg/injection, schedule: Q01DX015 (ip), vehicle: carboxymethylcellulose (CMC)) was 96 % of control and the T/C (dose: 120.0 mg/kg/injection, schedule: Q01DX015 (ip), vehicle: carboxymethylcellulose (CMC)) was 86 % of control. For the same compound, the T/C (dose: 400.0 mg/kg/injection, schedule: Q01DX001 (ip), vehicle: carboxymethylcellulose (CMC)) was 152 % of control and the T/C (dose: 600.0 mg/kg/injection, schedule: Q01DX001 (ip), vehicle: carboxymethylcellulose (CMC)) was 103 % of control.

`COC1OCC2OC(C)(C)OC2C1OS(=O)(=O)c1ccc(C)cc1` (stereo not given) was tested, and the T/C (dose: 50.0 mg/kg/injection, schedule: Q01DX001 (ip), vehicle: saline) was 91 % of control, the T/C [4] was 104 % of control and the T/C [5] was 102 % of control. For the same compound, the T/C [6] was 98 % of control and 96 % of control.

`CC1(C)CC(=O)C2=C(C1)Nc1ccc(Cl)cc1NC2c1ccccc1` (stereo not given) was tested, and the T/C (dose: 25.0 mg/kg/injection, schedule: Q04DX002 (ip), vehicle: Klucel (hydroxypropylcellulose) (HPC)) was 92 % of control, the T/C [7] was 106 % of control and the T/C [8] was 92 % of control. The T/C [9] was 103 % of control and 113 % of control and the T/C [10] was 106 % of control.

`CN(C)C1CCCCC1` was tested, and the T/C (dose: 25.0 mg/kg/injection, schedule: Q01DX009 (ip), vehicle: Klucel (hydroxypropylcellulose) (HPC)) was 105 % of control, the T/C [1] was 100 % of control and the T/C [2] was 114 % of control. For the same compound, the T/C [11] was 117 % of control, the T/C [12] was 101 % of control and the T/C [13] was 96 % of control.

With `Nc1ccc(S(=O)(=O)c2ccc(N)cn2)cc1` the T/C [7] was 89 % of control, the T/C [8] was 98 % of control and 107 % of control and the T/C [9] was 96 % of control. The T/C [10] was 96 % of control and 102 % of control.

With `CCOc1ccc(/C=N/NC(=O)CC2CCCCC2)cc1OC` the T/C (dose: 100.0 mg/kg/injection, schedule: Q01DX009 (ip), vehicle: saline with Tween-80) was 90 % of control, the T/C (dose: 200.0 mg/kg/injection, schedule: Q01DX009 (ip), vehicle: saline with Tween-80) was 88 % of control and the T/C (dose: 400.0 mg/kg/injection, schedule: Q01DX009 (ip), vehicle: saline with Tween-80) was 90 % of control.

In the case of `COc1ccc(S(=O)(=O)NC(=O)NC(=O)CC=C(C)C)cc1`, the T/C [7] is reported as 103 % of control, the T/C [2] is reported as 105 % of control and the T/C [8] is reported as 96 % of control. For the same compound, the T/C [11] was 110 % of control, the T/C [3] was 95 % of control and the T/C [9] was 103 % of control. The T/C [12] was 98 % of control, the T/C (dose: 400.0 mg/kg/injection, schedule: Q01DX009 (ip), vehicle: Klucel (hydroxypropylcellulose) (HPC)) was 97 % of control and the T/C [13] was 104 % of control.

In the case of `CCN1c2ccccc2C(Cl)(c2ccc(N(C)C)cc2)c2ccccc21`, the T/C (dose: 1.8 mg/kg/injection, schedule: Q03HX024 (ip), vehicle: saline) is reported as 96 % of control, the T/C (dose: 2.6 mg/kg/injection, schedule: Q03HX024 (ip), vehicle: saline) is reported as 88 % of control and the T/C (dose: 3.9 mg/kg/injection, schedule: Q03HX024 (ip), vehicle: saline) is reported as 95 % of control. The T/C (dose: 5.9 mg/kg/injection, schedule: Q03HX024 (ip), vehicle: saline) was 101 % of control, the T/C (dose: 6.25 mg/kg/injection, schedule: Q01DX009 (ip), vehicle: saline) was 93 % of control and the T/C (dose: 6.25 mg/kg/injection, schedule: Q04DX003 (ip), vehicle: saline) was 95 % of control. For the same compound, the T/C (dose: 8.8 mg/kg/injection, schedule: Q01DX009 (ip), vehicle: saline) was 101 % of control, the T/C (dose: 8.8 mg/kg/injection, schedule: Q03HX024 (ip), vehicle: saline) was 101 % of control and 104 % of control and the T/C (dose: 12.5 mg/kg/injection, schedule: Q01DX001 (ip), vehicle: saline) was 101 % of control. For the same compound, the T/C (dose: 12.5 mg/kg/injection, schedule: Q01DX009 (ip), vehicle: saline) was 115 % of control, the T/C (dose: 12.5 mg/kg/injection, schedule: Q04DX003 (ip), vehicle: saline) was 108 % of control and the T/C (dose: 13.0 mg/kg/injection, schedule: Q01DX009 (ip), vehicle: saline) was 105 % of control. The T/C (dose: 18.0 mg/kg/injection, schedule: Q01DX001 (ip), vehicle: saline) was 103 % of control, the T/C (dose: 18.0 mg/kg/injection, schedule: Q04DX003 (ip), vehicle: saline) was 104 % of control and the T/C (dose: 20.0 mg/kg/injection, schedule: Q01DX009 (ip), vehicle: saline) was 106 % of control. The T/C (dose: 25.0 mg/kg/injection, schedule: Q01DX001 (ip), vehicle: saline) was 111 % of control, the T/C (dose: 25.0 mg/kg/injection, schedule: Q01DX009 (ip), vehicle: saline) was 112 % of control and the T/C (dose: 25.0 mg/kg/injection, schedule: Q04DX003 (ip), vehicle: saline) was 104 % of control. For the same compound, the T/C (dose: 26.0 mg/kg/injection, schedule: Q01DX001 (ip), vehicle: saline) was 103 % of control, the T/C (dose: 26.0 mg/kg/injection, schedule: Q04DX003 (ip), vehicle: saline) was 102 % of control and the T/C (dose: 30.0 mg/kg/injection, schedule: Q01DX009 (ip), vehicle: saline) was 98 % of control. For the same compound, the T/C (dose: 39.0 mg/kg/injection, schedule: Q01DX001 (ip), vehicle: saline) was 104 % of control and the T/C (dose: 39.0 mg/kg/injection, schedule: Q04DX003 (ip), vehicle: saline) was 103 % of control.

For `CC(C)(Cl)N=Nc1ccc([N+](=O)[O-])cc1[N+](=O)[O-]`, the T/C (dose: 100.0 mg/kg/injection, schedule: Q04DX003 (ip), vehicle: saline with Tween-80) was 96 % of control, the T/C (dose: 200.0 mg/kg/injection, schedule: Q04DX003 (ip), vehicle: saline with Tween-80) was 98 % of control and the T/C (dose: 400.0 mg/kg/injection, schedule: Q04DX003 (ip), vehicle: saline with Tween-80) was 88 % of control.

With `Cc1ccc(NC(=O)N(CCCl)N=O)c(NC(=O)N(CCCl)N=O)c1` the T/C (dose: 30.0 mg/kg/injection, schedule: Q01DX001 (ip), vehicle: carboxymethylcellulose (CMC)) was 117 % of control, the T/C (dose: 33.0 mg/kg/injection, schedule: Q01DX001 (ip), vehicle: carboxymethylcellulose (CMC)) was 107 % of control and the T/C (dose: 33.0 mg/kg/injection, schedule: Q01DX009 (ip), vehicle: carboxymethylcellulose (CMC)) was 108 % of control. The T/C (dose: 50.0 mg/kg/injection, schedule: Q01DX009 (ip), vehicle: carboxymethylcellulose (CMC)) was 88 % of control, the T/C (dose: 75.0 mg/kg/injection, schedule: Q01DX001 (ip), vehicle: carboxymethylcellulose (CMC)) was 113 % of control and the T/C (dose: 112.0 mg/kg/injection, schedule: Q01DX001 (ip), vehicle: carboxymethylcellulose (CMC)) was 96 % of control.

In the case of `O=C1CCCCC1Nc1ccc([N+](=O)[O-])cc1` (stereo not given), the T/C [4] is reported as 87 % of control, the T/C [5] is reported as 93 % of control and the T/C [6] is reported as 95 % of control.

Source: PubChem BioAssay AID248 (DTP/NCI, 2004)
